According to PubChem BioAssay (NCI):
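GI50 is the concentration that inhibits growth by half. TGI: total growth inhibition.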

How the values were obtained:
Assay in all cases: growth of human tumour cells (NCI), 384-well format
786-0 renal = system: 786-0 renal
A498 renal = system: A498 renal
A549 NSCLC = system: A549 NSCLC
ACHN renal = system: ACHN renal
BT-549 breast = system: BT-549 breast
CAKI-1 renal = system: CAKI-1 renal
CCRF-CEM leukemia = system: CCRF-CEM leukemia
COLO 205 colon = system: COLO 205 colon
DU-145 prostate = system: DU-145 prostate
EKVX NSCLC = system: EKVX NSCLC
HCC-2998 colon = system: HCC-2998 colon
HCT-116 colon = system: HCT-116 colon
HCT-15 colon = system: HCT-15 colon
HL-60(TB) leukemia = system: HL-60(TB) leukemia
HOP-62 NSCLC = system: HOP-62 NSCLC
HOP-92 NSCLC = system: HOP-92 NSCLC
HS 578T breast = system: HS 578T breast
HT29 colon = system: HT29 colon
IGROV1 ovarian = system: IGROV1 ovarian
K-562 leukemia = system: K-562 leukemia
KM12 colon = system: KM12 colon
LOX IMVI melanoma = system: LOX IMVI melanoma
M14 melanoma = system: M14 melanoma
MALME-3M melanoma = system: MALME-3M melanoma
MCF7 breast = system: MCF7 breast
MDA-MB-435 melanoma = system: MDA-MB-435 melanoma
MDA-MB-468 breast = system: MDA-MB-468 breast
MOLT-4 leukemia = system: MOLT-4 leukemia
NCI-H226 lung = system: NCI-H226 lung
NCI-H23 lung = system: NCI-H23 lung
NCI-H322M lung = system: NCI-H322M lung
NCI-H460 NSCLC = system: NCI-H460 NSCLC
NCI-H522 lung = system: NCI-H522 lung
NCI/ADR-RES ovarian = system: NCI/ADR-RES ovarian
OVCAR-3 ovarian = system: OVCAR-3 ovarian
OVCAR-4 ovarian = system: OVCAR-4 ovarian
OVCAR-8 ovarian = system: OVCAR-8 ovarian
PC-3 prostate = system: PC-3 prostate
RPMI-8226 leukemia = system: RPMI-8226 leukemia
RXF 393 renal = system: RXF 393 renal
SF-268 CNS = system: SF-268 CNS
SF-295 CNS = system: SF-295 CNS
SF-539 CNS = system: SF-539 CNS
SK-MEL-2 melanoma = system: SK-MEL-2 melanoma
SK-MEL-28 melanoma = system: SK-MEL-28 melanoma
SK-MEL-5 melanoma = system: SK-MEL-5 melanoma
SK-OV-3 ovarian = system: SK-OV-3 ovarian
SN12C renal = system: SN12C renal
SNB-19 CNS = system: SNB-19 CNS
SNB-75 CNS = system: SNB-75 CNS
SW-620 colon = system: SW-620 colon
TK-10 renal = system: TK-10 renal
U251 glioblastoma = system: U251 glioblastoma
UACC-257 melanoma = system: UACC-257 melanoma
UACC-62 melanoma = system: UACC-62 melanoma

CC1=CC(=O)C=CC1=Nc1ccc(N(C)C)cc1 showed a GI50 ([…]-0 renal) of 13 µM, a TGI (786-0 renal) of 25.7 µM and a GI50 (A498 renal) of 11.4 µM. For the same compound, the TGI (A498 renal) was 23.6 µM, the GI50 (A549 NSCLC) was 15.3 µM and the TGI (A549 NSCLC) was 28.8 µM. For the same compound, the GI50 (ACHN renal) was 5.29 µM, the TGI (ACHN renal) was 18.7 µM and the GI50 (BT-549 breast) was 6.14 µM. The TGI (BT-549 breast) was 18.6 µM, the GI50 (CAKI-1 renal) was 8.66 µM and the TGI (CAKI-1 renal) was 20.8 µM. It also gave a GI50 (CCRF-CEM leukemia) of 1.43 µM, a TGI (CCRF-CEM leukemia) of 2.77 µM and a GI50 (COLO 205 colon) of 2.92 µM. The TGI (COLO 205 colon) was 7.43 µM, the GI50 (DU-145 prostate) was 14 µM and the TGI (DU-145 prostate) was 27 µM. For the same compound, the GI50 (EKVX NSCLC) was 11.3 µM, the TGI (EKVX NSCLC) was 23.5 µM and the GI50 (HCC-2998 colon) was 5.21 µM. It also gave a TGI (HCC-2998 colon) of 20.1 µM, a GI50 (HCT-116 colon) of 2.67 µM and a TGI (HCT-116 colon) of 8.2 µM. For the same compound, the GI50 (HCT-15 colon) was 11.4 µM, the TGI (HCT-15 colon) was 23.6 µM and the GI50 (HL-60(TB) leukemia) was 1.33 µM. For the same compound, the TGI (HL-60(TB) leukemia) was 2.62 µM, the GI50 (HOP-62 NSCLC) was 3.92 µM and the TGI (HOP-62 NSCLC) was 9.14 µM. The GI50 (HOP-92 NSCLC) was 2.65 µM, the TGI (HOP-92 NSCLC) was 6.19 µM and the GI50 (HS 578T breast) was 12.3 µM. The TGI (HS 578T breast) was 24.8 µM, the GI50 (HT29 colon) was 14.4 µM and the TGI (HT29 colon) was 27.7 µM. It also gave a GI50 (IGROV1 ovarian) of 12.1 µM, a TGI (IGROV1 ovarian) of 24.5 µM and a GI50 (K-562 leukemia) of 12.1 µM. The TGI (K-562 leukemia) was 24.5 µM, the GI50 (KM12 colon) was 12.6 µM and the TGI (KM12 colon) was 25.3 µM. The GI50 (LOX IMVI melanoma) was 11.6 µM, the TGI (LOX IMVI melanoma) was 23.9 µM and the GI50 (M14 melanoma) was 12.5 µM. It also gave a TGI (M14 melanoma) of 25 µM, a GI50 (MALME-3M melanoma) of 15.3 µM and a TGI (MALME-3M melanoma) of 28.6 µM. For the same compound, the GI50 (MCF7 breast) was 3.46 µM, the TGI (MCF7 breast) was 13.3 µM and the GI50 (MDA-MB-435 melanoma) was 2.52 µM. For the same compound, the TGI (MDA-MB-435 melanoma) was 6.2 µM, the GI50 (MDA-MB-468 breast) was 0.361 µM and the TGI (MDA-MB-468 breast) was 1.34 µM. The GI50 (MOLT-4 leukemia) was 1.38 µM, the TGI (MOLT-4 leukemia) was 2.68 µM and the GI50 (NCI-H226 lung) was 8.38 µM. It also gave a TGI (NCI-H226 lung) of 20.6 µM, a GI50 (NCI-H23 lung) of 4.94 µM and a TGI (NCI-H23 lung) of 18 µM. The GI50 (NCI-H322M lung) was 17.6 µM, the TGI (NCI-H322M lung) was 31.5 µM and the GI50 (NCI-H460 NSCLC) was 16.4 µM. For the same compound, the TGI (NCI-H460 NSCLC) was 30.2 µM, the GI50 (NCI-H522 lung) was 2.21 µM and the TGI (NCI-H522 lung) was 10.4 µM. The GI50 (NCI/ADR-RES ovarian) was 6.51 µM, the TGI (NCI/ADR-RES ovarian) was 19.2 µM and the GI50 (OVCAR-3 ovarian) was 1.6 µM. The TGI (OVCAR-3 ovarian) was 3.06 µM, the GI50 (OVCAR-4 ovarian) was 2.58 µM and the TGI (OVCAR-4 ovarian) was 12.4 µM. The GI50 (OVCAR-8 ovarian) was 3.49 µM, the TGI (OVCAR-8 ovarian) was 9.79 µM and the GI50 (PC-3 prostate) was 3.22 µM. The TGI (PC-3 prostate) was 10.4 µM, the GI50 (RPMI-8226 leukemia) was 1.76 µM and the TGI (RPMI-8226 leukemia) was 3.19 µM. For the same compound, the GI50 (RXF 393 renal) was 4.87 µM, the TGI (RXF 393 renal) was 16.6 µM and the GI50 (SF-268 CNS) was 16.5 µM. For the same compound, the TGI (SF-268 CNS) was 30.1 µM, the GI50 (SF-295 CNS) was 15.3 µM and the TGI (SF-295 CNS) was 28.7 µM. For the same compound, the GI50 (SF-539 CNS) was 10.1 µM, the TGI (SF-539 CNS) was 21.7 µM and the GI50 (SK-MEL-2 melanoma) was 1.77 µM. For the same compound, the TGI (SK-MEL-2 melanoma) was 3.26 µM, the GI50 (SK-MEL-28 melanoma) was 15.6 µM and the TGI (SK-MEL-28 melanoma) was 29 µM. It also gave a GI50 (SK-MEL-5 melanoma) of 6.37 µM, a TGI (SK-MEL-5 melanoma) of 19.9 µM and a GI50 (SK-OV-3 ovarian) of 15.5 µM. For the same compound, the TGI (SK-OV-3 ovarian) was 29 µM, the GI50 (SN12C renal) was 11.6 µM and the TGI (SN12C renal) was 23.9 µM. The GI50 (SNB-19 CNS) was 15.3 µM, the TGI (SNB-19 CNS) was 28.7 µM and the GI50 (SNB-75 CNS) was 17.4 µM. For the same compound, the TGI (SNB-75 CNS) was 31.2 µM, the GI50 (SW-620 colon) was 13.4 µM and the TGI (SW-620 colon) was 26.4 µM. The GI50 (TK-10 renal) was 10.7 µM, the TGI (TK-10 renal) was 22.6 µM and the GI50 (U251 glioblastoma) was 10.4 µM. For the same compound, the TGI (U251 glioblastoma) was 22.2 µM, the GI50 (UACC-257 melanoma) was 6.22 µM and the TGI (UACC-257 melanoma) was 18.4 µM. For the same compound, the GI50 (UACC-62 melanoma) was 1.83 µM and the TGI (UACC-62 melanoma) was 3.92 µM.
